PubChem BioAssay (NCI)
Where “and” joins values, the source holds several entries; their conditions need not be identical. Equal entries are not always repeated.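 Protocol summary: plate cells (96-well), add compound at 5 concentrations, incubate 48 h, interpolate endpoints linearly. GI50 is the concentration that inhibits growth by half. TGI denotes the concentration required for complete inhibition of growth.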 Where a SMILES comes first, the peptide text is derived from it. [ ]: non-standard residue; d: D form. Ac5c = NC1(C(=O)O)CCCC1

Columns and labels:
Assay in all cases: NCI-60 cell line screen, 48 h
HOP-62 NSCLC = test system: HOP-62 NSCLC
MOLT-4 leukemia = test system: MOLT-4 leukemia
OVCAR-5 ovarian = test system: OVCAR-5 ovarian
PC-3 prostate = test system: PC-3 prostate
SK-MEL-2 melanoma = test system: SK-MEL-2 melanoma
SK-MEL-28 melanoma = test system: SK-MEL-28 melanoma
SK-OV-3 ovarian = test system: SK-OV-3 ovarian
SN12C renal = test system: SN12C renal
SW-620 colon = test system: SW-620 colon
TK-10 renal = test system: TK-10 renal

NC1(C(=O)NC2(C(=O)O)CCCC2)CCCC1 (H-[Ac5c]-[Ac5c]-OH)
TGI (HOP-62 NSCLC): > 100 µM
TGI (MOLT-4 leukemia): > 100 µM
TGI (OVCAR-5 ovarian): > 100 µM
TGI (PC-3 prostate): > 100 µM
TGI (SK-MEL-2 melanoma): > 100 µM
TGI (SK-MEL-28 melanoma): > 100 µM
TGI (SK-OV-3 ovarian): > 100 µM
TGI (SN12C renal): > 100 µM
TGI (SW-620 colon): > 100 µM
TGI (TK-10 renal): > 100 µM

COc1cc(OC)c(/C=C/S(=O)(=O)Cc2cnc(OC)c(N)c2)c(OC)c1
GI50 (HOP-62 NSCLC): < 0.0185 µM
TGI (HOP-62 NSCLC): > 100 µM
GI50 (MOLT-4 leukemia): < 0.0218 µM
TGI (MOLT-4 leukemia): > 100 µM
GI50 (OVCAR-5 ovarian): < 0.0482 µM
TGI (OVCAR-5 ovarian): > 100 µM
GI50 (PC-3 prostate): < 0.0187 µM
TGI (PC-3 prostate): > 100 µM
GI50 (SK-MEL-2 melanoma): < 0.01 µM
TGI (SK-MEL-2 melanoma): > 100 µM
GI50 (SK-MEL-28 melanoma): 20.4 µM
TGI (SK-MEL-28 melanoma): > 100 µM
GI50 (SK-OV-3 ovarian): < 0.0211 µM
TGI (SK-OV-3 ovarian): > 100 µM
GI50 (SN12C renal): < 0.0232 µM
TGI (SN12C renal): > 100 µM
GI50 (SW-620 colon): < 0.0188 µM
TGI (SW-620 colon): > 100 µM
GI50 (TK-10 renal): > 100 µM
TGI (TK-10 renal): > 100 µM

CN1CCN(CCCN)CC1
TGI (HOP-62 NSCLC): > 100 µM
TGI (MOLT-4 leukemia): > 100 µM
TGI (OVCAR-5 ovarian): > 100 µM
TGI (PC-3 prostate): > 100 µM
TGI (SK-MEL-2 melanoma): > 100 µM
TGI (SK-MEL-28 melanoma): > 100 µM
TGI (SK-OV-3 ovarian): > 100 µM
TGI (SN12C renal): > 100 µM
TGI (SW-620 colon): > 100 µM
TGI (TK-10 renal): > 100 µM

CC(=O)Nc1ccc(C(=O)NN2C(=O)C(Cl)C2c2ccc(Cl)cc2)cc1 (stereo unspecified)
TGI (HOP-62 NSCLC): 57.8 µM
TGI (MOLT-4 leukemia): > 100 µM
TGI (OVCAR-5 ovarian): > 100 µM
TGI (PC-3 prostate): > 100 µM
TGI (SK-MEL-2 melanoma): > 100 µM
TGI (SK-MEL-28 melanoma): > 100 µM
TGI (SK-OV-3 ovarian): 71.9 µM
TGI (SN12C renal): > 100 µM
TGI (SW-620 colon): > 100 µM
TGI (TK-10 renal): > 100 µM

COC(=O)CCc1cc(OC)c2c(c1)C(C(=O)OC)C(c1ccc(OC)c(OC)c1)O2 (stereo unspecified)
GI50 (HOP-62 NSCLC): > 100 µM and 36.6 µM
TGI (HOP-62 NSCLC): > 100 µM
GI50 (MOLT-4 leukemia): 65.1 µM and 7.2 µM
TGI (MOLT-4 leukemia): > 100 µM
TGI (OVCAR-5 ovarian): > 100 µM
GI50 (PC-3 prostate): > 100 µM and 28.8 µM
TGI (PC-3 prostate): > 100 µM
TGI (SK-MEL-2 melanoma): > 100 µM
GI50 (SK-MEL-28 melanoma): 21.9 µM and > 100 µM
TGI (SK-MEL-28 melanoma): > 100 µM
GI50 (SK-OV-3 ovarian): > 100 µM and 39.6 µM
TGI (SK-OV-3 ovarian): > 100 µM
TGI (SN12C renal): > 100 µM
GI50 (SW-620 colon): > 100 µM and 17.3 µM
TGI (SW-620 colon): > 100 µM
TGI (TK-10 renal): > 100 µM

CC(O)c1cccc(NCc2c3ccccc3c(=O)n3c2oc2ccccc23)c1 (stereo unspecified)
GI50 (HOP-62 NSCLC): 3.01 µM
TGI (HOP-62 NSCLC): 13.6 µM
GI50 (MOLT-4 leukemia): 5.03 µM
TGI (MOLT-4 leukemia): > 100 µM
GI50 (OVCAR-5 ovarian): 18.3 µM
TGI (OVCAR-5 ovarian): > 100 µM
GI50 (PC-3 prostate): 7.11 µM
TGI (PC-3 prostate): > 100 µM
GI50 (SK-MEL-2 melanoma): 6.31 µM
TGI (SK-MEL-2 melanoma): 46.9 µM
GI50 (SK-MEL-28 melanoma): 6 µM
TGI (SK-MEL-28 melanoma): 35.6 µM
GI50 (SK-OV-3 ovarian): 4.42 µM
TGI (SK-OV-3 ovarian): 30.6 µM
GI50 (SN12C renal): 15.5 µM
TGI (SN12C renal): > 100 µM
GI50 (SW-620 colon): 13.6 µM
TGI (SW-620 colon): > 100 µM
GI50 (TK-10 renal): 5.7 µM
TGI (TK-10 renal): 28 µM

O=c1c2c(nc3n1CCS3)[nH]c1ccccc12
GI50 (HOP-62 NSCLC): > 100 µM
TGI (HOP-62 NSCLC): > 100 µM
GI50 (MOLT-4 leukemia): > 100 µM
TGI (MOLT-4 leukemia): > 100 µM
GI50 (OVCAR-5 ovarian): > 100 µM
TGI (OVCAR-5 ovarian): > 100 µM
GI50 (PC-3 prostate): > 100 µM
TGI (PC-3 prostate): > 100 µM
GI50 (SK-MEL-2 melanoma): > 100 µM
TGI (SK-MEL-2 melanoma): > 100 µM
GI50 (SK-MEL-28 melanoma): 90.3 µM
TGI (SK-MEL-28 melanoma): > 100 µM
GI50 (SK-OV-3 ovarian): > 100 µM
TGI (SK-OV-3 ovarian): > 100 µM
GI50 (SN12C renal): > 100 µM
TGI (SN12C renal): > 100 µM
GI50 (SW-620 colon): > 100 µM
TGI (SW-620 colon): > 100 µM
GI50 (TK-10 renal): > 100 µM
TGI (TK-10 renal): > 100 µM

CC1=C2[C@@H](CC1)[C@]1(C)O[C@@](C3CCCCC3)(C[C@H]1OC(=O)CO)[C@H]2OC(=O)/C=C/c1ccccc1
GI50 (HOP-62 NSCLC): 12 µM
TGI (HOP-62 NSCLC): 25.5 µM
GI50 (MOLT-4 leukemia): 5.82 µM
TGI (MOLT-4 leukemia): 17.4 µM
GI50 (OVCAR-5 ovarian): 15.2 µM
TGI (OVCAR-5 ovarian): 37.1 µM
GI50 (PC-3 prostate): 6.33 µM
TGI (PC-3 prostate): 21.2 µM
GI50 (SK-MEL-2 melanoma): 11.5 µM
TGI (SK-MEL-2 melanoma): 27.9 µM
GI50 (SK-MEL-28 melanoma): 9.53 µM
TGI (SK-MEL-28 melanoma): 27.1 µM
GI50 (SK-OV-3 ovarian): 9.71 µM
TGI (SK-OV-3 ovarian): 24.5 µM
GI50 (SN12C renal): 0.318 µM
TGI (SN12C renal): 15.1 µM
GI50 (SW-620 colon): 9.26 µM
TGI (SW-620 colon): 25.1 µM
GI50 (TK-10 renal): 12.3 µM
TGI (TK-10 renal): 26.5 µM

O=C(O[C@H]1CN[C@H](C#Cc2cc3ncnc(Nc4ccc5c(ccn5Cc5cc(F)ccc5F)c4)c3s2)C1)N1CCOCC1
GI50 (HOP-62 NSCLC): 3.22 µM
TGI (HOP-62 NSCLC): 8.06 µM
GI50 (MOLT-4 leukemia): 6.1 µM
TGI (MOLT-4 leukemia): > 25 µM
GI50 (OVCAR-5 ovarian): 1.07 µM
TGI (OVCAR-5 ovarian): 11.1 µM
GI50 (PC-3 prostate): 5.52 µM
TGI (PC-3 prostate): > 23.7 µM
GI50 (SK-MEL-2 melanoma): 5.35 µM
TGI (SK-MEL-2 melanoma): 12.7 µM
GI50 (SK-MEL-28 melanoma): 4.06 µM
TGI (SK-MEL-28 melanoma): 7.98 µM
GI50 (SK-OV-3 ovarian): 0.0183 µM
TGI (SK-OV-3 ovarian): 0.106 µM
GI50 (SN12C renal): 2.57 µM
TGI (SN12C renal): 12.8 µM
GI50 (SW-620 colon): 5.16 µM
TGI (SW-620 colon): 15.1 µM
GI50 (TK-10 renal): 0.0724 µM
TGI (TK-10 renal): 1.93 µM

O=c1c(Oc2ccc(F)cc2F)cc2cnc(NC3CCOCC3)nc2n1C1CCS(=O)(=O)CC1
GI50 (HOP-62 NSCLC): > 25 µM
TGI (HOP-62 NSCLC): > 25 µM
GI50 (MOLT-4 leukemia): > 25 µM
TGI (MOLT-4 leukemia): > 25 µM
GI50 (OVCAR-5 ovarian): > 25 µM
TGI (OVCAR-5 ovarian): > 25 µM
GI50 (PC-3 prostate): > 25 µM
TGI (PC-3 prostate): > 25 µM
GI50 (SK-MEL-2 melanoma): > 25 µM
TGI (SK-MEL-2 melanoma): > 25 µM
GI50 (SK-MEL-28 melanoma): > 25 µM
TGI (SK-MEL-28 melanoma): > 25 µM
GI50 (SK-OV-3 ovarian): > 25 µM
TGI (SK-OV-3 ovarian): > 25 µM
GI50 (SN12C renal): > 25 µM
TGI (SN12C renal): > 25 µM
GI50 (SW-620 colon): > 25 µM
TGI (SW-620 colon): > 25 µM
GI50 (TK-10 renal): > 25 µM
TGI (TK-10 renal): > 25 µM

NOCC(=O)O
GI50 (HOP-62 NSCLC): > 100 µM
TGI (HOP-62 NSCLC): > 100 µM
GI50 (MOLT-4 leukemia): > 100 µM
TGI (MOLT-4 leukemia): > 100 µM
GI50 (OVCAR-5 ovarian): > 100 µM
TGI (OVCAR-5 ovarian): > 100 µM
GI50 (PC-3 prostate): > 100 µM
TGI (PC-3 prostate): > 100 µM
GI50 (SK-MEL-2 melanoma): > 100 µM
TGI (SK-MEL-2 melanoma): > 100 µM
GI50 (SK-MEL-28 melanoma): > 100 µM
TGI (SK-MEL-28 melanoma): > 100 µM
GI50 (SK-OV-3 ovarian): > 100 µM
TGI (SK-OV-3 ovarian): > 100 µM
GI50 (SN12C renal): > 100 µM
TGI (SN12C renal): > 100 µM
GI50 (SW-620 colon): > 100 µM
TGI (SW-620 colon): > 100 µM
GI50 (TK-10 renal): > 100 µM
TGI (TK-10 renal): > 100 µM

CC(=O)c1c(C)[nH]c(-c2nc3ccc(N4CCN(C)CC4)cc3[nH]2)c1-c1ccc(OCC2CCOCC2)cc1
GI50 (HOP-62 NSCLC): 0.524 µM
TGI (HOP-62 NSCLC): 14.7 µM
GI50 (MOLT-4 leukemia): 1.63 µM
TGI (MOLT-4 leukemia): 20.6 µM
GI50 (OVCAR-5 ovarian): 1.62 µM
TGI (OVCAR-5 ovarian): 32.2 µM
GI50 (PC-3 prostate): 0.693 µM
TGI (PC-3 prostate): 19.3 µM
GI50 (SK-MEL-2 melanoma): 2 µM
TGI (SK-MEL-2 melanoma): 16.5 µM
GI50 (SK-MEL-28 melanoma): 1.62 µM
TGI (SK-MEL-28 melanoma): 17 µM
GI50 (SK-OV-3 ovarian): 0.377 µM
TGI (SK-OV-3 ovarian): 11.1 µM
GI50 (SN12C renal): 1.31 µM
TGI (SN12C renal): 17.4 µM
GI50 (SW-620 colon): 1.68 µM
TGI (SW-620 colon): 18 µM
GI50 (TK-10 renal): 0.306 µM
TGI (TK-10 renal): 16.8 µM

CC12OC(c3ccccc3)=CC(c3ccc(Cl)cc3)=C1C(c1ccccc1)=CC2=O (stereo unspecified)
GI50 (HOP-62 NSCLC): > 100 µM
TGI (HOP-62 NSCLC): > 100 µM
GI50 (MOLT-4 leukemia): 20.6 µM
TGI (MOLT-4 leukemia): 75.6 µM
GI50 (OVCAR-5 ovarian): > 100 µM
TGI (OVCAR-5 ovarian): > 100 µM
GI50 (PC-3 prostate): 34.4 µM
TGI (PC-3 prostate): > 100 µM
GI50 (SK-MEL-2 melanoma): > 100 µM
TGI (SK-MEL-2 melanoma): > 100 µM
GI50 (SK-MEL-28 melanoma): 66.5 µM
TGI (SK-MEL-28 melanoma): > 100 µM
GI50 (SK-OV-3 ovarian): > 100 µM
TGI (SK-OV-3 ovarian): > 100 µM
GI50 (SN12C renal): > 100 µM
TGI (SN12C renal): > 100 µM
GI50 (SW-620 colon): 90.4 µM
TGI (SW-620 colon): > 100 µM
GI50 (TK-10 renal): > 100 µM
TGI (TK-10 renal): > 100 µM
